Source: US20260042764A1, “COMPOSITIONS AND METHODS FOR INHIBITION OF KRAS” (TheRas, Inc., priority 2022, published 2026)

Assays:
[1] = molecular target: T1, Avi-KRAS WT (1-169) GppNHp/RAF1 RBD-3xFLAG (52-151) (Homo sapiens, UniProt P01116); assay: Raf1-KRAS WT-GppNHP disruption HTRF assay (Biological Example 1); format: binding
T1 construct: Avi-KRAS WT (1-169)
Procedure, shortened: (§1)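 Compounds were tested for disruption of KRAS–RAF1 RBD binding by HTRF in 50 mM Tris pH 7.5, 100 mM NaCl, 5 mM MgCl2, 0.1% BSA, 0.01% Tween, 10% DMSO. Protein mix was incubated 1 h at room temperature with shaking, then detection reagents added for another 1 h. Activity expressed as percent of DMSO control.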

[2] = system: GP2d cells (KRAS G12D); assay: Cell-based pERK HTRF assay in GP2d cell (Biological Example 2); settings: GP2d (KRAS G12D) cells, pERK HTRF
Procedure, shortened: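 Phospho-ERK is measured by HTRF following a 60 min compound exposure at 0.25% DMSO, with a 9-point half-log curve topping at 1 μM or 100 nM.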

[3] = system: SW620 cells (KRAS G12V); assay: Cell-based pERK HTRF assay in SW620 cell (Biological Example 4); settings: pERK HTRF
Procedure, shortened: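 This assay measures inhibition of ERK phosphorylation downstream of KRAS G12V in intact SW620 cells. Compounds are applied for 4 h over nine half-log concentrations starting at 1 μM, and pERK is quantified by HTRF.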

[4] = molecular target: T2, Avi-KRAS G12V (1-169) GppNHp/RAF1 RBD-3xFLAG (52-151) (Homo sapiens, UniProt P01116, G12V); assay: Raf1-KRAS G12V-GppNHP disruption HTRF assay (Biological Example 1); format: binding
T2 construct: Avi-KRAS G12V (1-169)
Procedure, shortened: as §1

[5] = molecular target: T3, Avi-KRAS G12D (1-169) GppNHp/RAF1 RBD-3xFLAG (52-151) (Homo sapiens, UniProt P01116, G12D); assay: Raf1-KRAS G12D-GppNHP disruption HTRF assay (Biological Example 1); format: binding
T3 construct: Avi-KRAS G12D (1-169)
Procedure, shortened: as §1

[6] = molecular target: T4, Avi-KRAS G12R (1-169) GppNHp/RAF1 RBD-3xFLAG (52-151) (Homo sapiens, UniProt P01116, G12R); assay: Raf1-KRAS G12R-GppNHP disruption HTRF assay (Biological Example 1); format: binding
T4 construct: Avi-KRAS G12R (1-169)
Procedure, shortened: as §1

[7] = KRAS WT, GppNHp-loaded, class symbols
[8] = Homo sapiens, SW-620, SW620 (KRAS G12V) cells, class symbols
[9] = KRAS G12V, GppNHp-loaded, class symbols
[10] = KRAS G12D, GppNHp-loaded, class symbols
[11] = KRAS G12R, GppNHp-loaded, class symbols
[12] = Homo sapiens, SW-620, SW620 (KRAS G12V) cells
[13] = KRAS WT, GppNHp-loaded, Table 11
[14] = KRAS G12V, GppNHp-loaded, Table 11
[15] = KRAS G12D, GppNHp-loaded, Table 11
[16] = KRAS G12R, GppNHp-loaded, Table 11

Measured: IC50

T2 sequence (P01116 1-169 isoform P01116-2 G12V): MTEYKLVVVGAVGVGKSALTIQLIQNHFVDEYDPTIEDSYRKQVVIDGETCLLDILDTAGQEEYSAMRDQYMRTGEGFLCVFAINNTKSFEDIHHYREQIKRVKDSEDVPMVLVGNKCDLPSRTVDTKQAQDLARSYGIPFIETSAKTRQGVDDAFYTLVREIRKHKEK
T4 sequence (P01116 1-169 isoform P01116-2 G12R): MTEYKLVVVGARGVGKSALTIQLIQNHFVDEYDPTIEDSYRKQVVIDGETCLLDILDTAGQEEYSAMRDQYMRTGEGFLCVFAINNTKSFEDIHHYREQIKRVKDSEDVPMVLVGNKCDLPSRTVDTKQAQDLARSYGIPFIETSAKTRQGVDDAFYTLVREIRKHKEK
T3 sequence (P01116 1-169 isoform P01116-2 G12D): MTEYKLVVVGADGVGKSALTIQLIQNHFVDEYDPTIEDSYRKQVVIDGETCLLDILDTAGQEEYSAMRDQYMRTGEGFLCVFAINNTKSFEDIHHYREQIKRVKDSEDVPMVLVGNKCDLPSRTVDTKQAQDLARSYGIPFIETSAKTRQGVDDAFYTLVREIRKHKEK
T1 sequence (P01116 1-169 isoform P01116-2): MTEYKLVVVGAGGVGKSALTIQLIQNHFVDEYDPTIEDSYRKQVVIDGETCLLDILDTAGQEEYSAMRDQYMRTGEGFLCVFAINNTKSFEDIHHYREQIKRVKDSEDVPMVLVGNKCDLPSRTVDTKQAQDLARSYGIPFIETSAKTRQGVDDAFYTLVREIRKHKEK

CCN(c1nc(OC[C@@]23CCCN2C[C@H](F)C3)nc2c(F)c(-c3ccc(F)c4sc(N)c(C#N)c34)c(C(F)(F)F)cc12)[C@H]1CCN(C(=O)[C@H](C)CO)C1 (atropisomer, axis not shown) [Compound 746]
< 100 nM: [1]; [7] | [2]; GP2d, class symbols | [3]; [8] | [4]; [9] | [5]; [10] | [6]; [11]

CC(=O)N1CC[C@@H](N(C)c2nc(OC[C@@]34CCCN3C[C@H](F)C4)nc3c(F)c(-c4ccc(F)c5oc(N)c(C#N)c45)c(C(F)(F)F)cc23)[C@H]1C [Compound 326]
< 100 nM: [2]; GP2d
1000 to 10000 nM: [4]; KRAS G12V-GppNHp/RAF1 RBD HTRF
100 to 1000 nM: [1]; KRAS WT-GppNHp/RAF1 RBD HTRF | [3]; [12] | [5]; KRAS G12D-GppNHp/RAF1 RBD HTRF | [6]; KRAS G12R-GppNHp/RAF1 RBD HTRF

CC(=O)N1CC[C@H](N(C)c2nc(OC[C@@]34CCCN3C[C@H](F)C4)nc3c(F)c(-c4ccc(F)c5sc(N)c(C#N)c45)c(C(F)(F)F)cc23)[C@@H]1C (single isomer, unassigned) [Compound 194]
> 1000 nM: [2] | [3]; SW620 (KRAS G12V) cells
> 10000 nM: [1]; [13] | [4]; [14] | [5]; [15] | [6]; [16]

CCN(c1nc(OC[C@@]23CCCN2C[C@H](F)C3)nc2c(F)c(-c3ccc(F)c4sc(N)c(C#N)c34)c(C(F)(F)F)cc12)[C@H]1CCN(C(=O)N2CCOCC2)C1 (atropisomer, axis not shown) [Compound 553]
< 100 nM: [1]; KRAS WT-GppNHp/RAF1 RBD HTRF | [2]; GP2d | [3]; [12] | [4]; KRAS G12V-GppNHp/RAF1 RBD HTRF | [5]; KRAS G12D-GppNHp/RAF1 RBD HTRF | [6]; KRAS G12R-GppNHp/RAF1 RBD HTRF

CC(=O)N1C[C@@H](C)[C@H](N(C)c2nc(OC[C@@]34CCCN3C[C@H](F)C4)nc3c(F)c(-c4ccc(F)c5sc(N)c(C#N)c45)c(C(F)(F)F)cc23)C1 [Compound 303]
< 100 nM: [2]; GP2d
100 to 1000 nM: [1]; KRAS WT-GppNHp/RAF1 RBD HTRF | [3]; [12] | [4]; KRAS G12V-GppNHp/RAF1 RBD HTRF | [5]; KRAS G12D-GppNHp/RAF1 RBD HTRF | [6]; KRAS G12R-GppNHp/RAF1 RBD HTRF

CC(=O)N1CC[C@H]2[C@@H]1CN2c1nc(OC[C@@]23CCCN2C[C@H](F)C3)nc2c(F)c(-c3ccc(F)c4sc(N)c(C#N)c34)c(C(F)(F)F)cc12 (atropisomer, axis not shown) [Compound 641]
100 to 1000 nM: [1]; [7]
< 100 nM: [2]; GP2d, class symbols | [3]; [8]
1000 to 10000 nM: [4]; [9] | [5]; [10] | [6]; [11]

CCN(c1nc(OC[C@@]23CCCN2C[C@H](F)C3)nc2c(F)c(-c3ccc(F)c4sc(N)c(C#N)c34)c(C(F)(F)F)cc12)C1CCN(C(=O)N2C3COCC2C3)C1 (stereo partly drawn) [Compound 652]
< 100 nM: [1]; [7] | [2]; GP2d, class symbols | [3]; [8] | [4]; [9] | [5]; [10] | [6]; [11]

CC(=O)N1CC[C@](C)(N(C)c2nc(OC[C@@]34CCCN3C[C@H](F)C4)nc3c(F)c(-c4ccc(F)c5sc(N)c(C#N)c45)c(C(F)(F)F)cc23)C1 [Compound 505]
100 to 1000 nM: [3]; [12]
1000 to 10000 nM: [1]; KRAS WT-GppNHp/RAF1 RBD HTRF | [4]; KRAS G12V-GppNHp/RAF1 RBD HTRF | [5]; KRAS G12D-GppNHp/RAF1 RBD HTRF | [6]; KRAS G12R-GppNHp/RAF1 RBD HTRF
< 100 nM: [2]; GP2d

N#Cc1c(N)sc2c(F)ccc(-c3c(C(F)(F)F)cc4c(N5CC(F)(F)C5)nc(OC[C@@]56CCCN5C[C@H](F)C6)nc4c3F)c12 [Compound 205]
100 to 1000 nM: [1]; [13] | [4]; [14] | [5]; [15] | [6]; [16]
< 100 nM: [2]; GP2d | [3]; [12]

N#Cc1c(N)sc2c(F)ccc(-c3c(C(F)(F)F)cc4c(N5C6COCC5C6)nc(OC[C@@]56CCCN5C[C@H](F)C6)nc4c3F)c12 [Compound 202]
100 to 1000 nM: [1]; [13] | [4]; [14] | [5]; [15] | [6]; [16]
< 100 nM: [2]; GP2d | [3]; [12]

CCN(c1nc(OC[C@@]23CCCN2C[C@H](F)C3)nc2c(F)c(-c3ccc(F)c4sc(N)c(C#N)c34)c(C(F)(F)F)cc12)[C@H]1CC(=O)N(CCOC)C1 (atropisomer, axis not shown) [Compound 815]
< 100 nM: [1]; [7] | [2]; GP2d, class symbols | [3]; [8] | [4]; [9] | [5]; [10] | [6]; [11]
